How the values were obtained:
[1] = target: Sigma non-opioid intracellular receptor 1 (Homo sapiens, UniProt Q99720); test: DRUGMATRIX: Sigma1 radioligand binding (ligand: [3H] Haloperidol); assay type: cell membranes, Jurkat, Membrane; conditions: jurkat; Not Active = under 50% inhibition at 10 µM
[2] = DRUGMATRIX: Sigma2 radioligand binding (ligand: [3H] Ifenprodil); assay type: cell membranes, Rattus norvegicus, Wistar, Brain, Membrane; conditions: Not Active = under 50% inhibition at 10 µM
Substance-P receptor = Substance-P receptor (Homo sapiens, UniProt P25103); assay type: cell membranes, CHO, Membrane; conditions: cho; note: in other assays of this panel Not Active means under 50% inhibition at 10 µM
[3] = DRUGMATRIX: GABAA, Flunitrazepam, Central radioligand binding (ligand: [3H] Flunitrazepam); assay type: cell membranes, Rattus norvegicus, Wistar, Brain, Membrane; conditions: Not Active = under 50% inhibition at 10 µM
[4] = DRUGMATRIX: Glutamate, Kainate radioligand binding (ligand: [3H] Kainic acid); assay type: cell membranes, Rattus norvegicus, Wistar, Brain, Membrane; conditions: Not Active = under 50% inhibition at 10 µM
Leukotriene C4 synthase = target: T1, Leukotriene C4 synthase (Cavia porcellus, UniProt A6XA80); test: biochemical; assay type: tissue-based, Lung;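 note: enzyme inhibition assay of leukotriene C4 synthase, using LTA4 as the substrate; in other assays of this panel Not Active means under 50% inhibition at 10 µM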
T1 sequence (A6XA80 whole entry): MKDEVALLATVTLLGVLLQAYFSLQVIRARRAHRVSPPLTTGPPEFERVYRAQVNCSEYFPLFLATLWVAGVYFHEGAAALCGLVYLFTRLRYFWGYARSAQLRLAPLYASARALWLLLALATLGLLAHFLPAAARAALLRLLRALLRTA

[5] = target: T2, Polyunsaturated fatty acid lipoxygenase ALOX15 (Oryctolagus cuniculus, UniProt P12530); test: biochemical; assay type: tissue-based, Reticulocytes; conditions: reticulocytes;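 note: inhibition of 15-lipoxygenase enzyme activity measured with linoleic acid as the substrate; in other assays of this panel Not Active means under 50% inhibition at 10 µM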
T2 sequence (P12530 whole entry): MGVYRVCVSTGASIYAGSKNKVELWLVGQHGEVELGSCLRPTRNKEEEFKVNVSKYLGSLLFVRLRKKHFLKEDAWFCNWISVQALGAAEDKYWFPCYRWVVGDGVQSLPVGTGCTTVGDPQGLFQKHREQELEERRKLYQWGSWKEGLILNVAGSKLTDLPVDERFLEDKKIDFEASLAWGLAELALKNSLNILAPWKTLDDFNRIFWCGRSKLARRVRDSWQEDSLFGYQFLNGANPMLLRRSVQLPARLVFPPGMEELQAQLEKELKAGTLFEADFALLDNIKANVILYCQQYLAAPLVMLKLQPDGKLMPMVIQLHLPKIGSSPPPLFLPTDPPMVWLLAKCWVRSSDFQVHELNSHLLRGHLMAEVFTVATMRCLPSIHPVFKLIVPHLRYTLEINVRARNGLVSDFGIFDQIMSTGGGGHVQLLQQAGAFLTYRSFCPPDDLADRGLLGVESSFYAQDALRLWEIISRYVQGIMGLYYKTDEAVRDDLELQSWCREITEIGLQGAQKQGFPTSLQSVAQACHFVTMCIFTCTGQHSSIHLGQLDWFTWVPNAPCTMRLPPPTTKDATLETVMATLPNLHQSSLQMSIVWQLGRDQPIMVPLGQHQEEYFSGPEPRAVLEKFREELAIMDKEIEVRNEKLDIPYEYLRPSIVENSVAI

[6] = DRUGMATRIX: Phorbol Ester radioligand binding (ligand: [3H] PDBu); assay type: cell membranes, Mus musculus, ICR, Brain, Membrane; conditions: Not Active = under 50% inhibition at 10 µM
[7] = target: cGMP-specific 3',5'-cyclic phosphodiesterase (Homo sapiens, UniProt O76074); test: DRUGMATRIX: Phosphodiesterase PDE5 enzyme inhibition (substrate: [3H]cGMP + cGMP); assay type: tissue-based, Platelet; conditions: platelet; Not Active = under 50% inhibition at 10 µM
[8] = target: Platelet-activating factor receptor (Homo sapiens, UniProt P25105); test: biochemical; assay type: tissue-based; conditions: platelet; note: in other assays of this panel Not Active means under 50% inhibition at 10 µM
[9] = target: Matrix metalloproteinase-9 (Homo sapiens, UniProt P14780); assay type: cell-based
[10] = target: Protein phosphatase 3 catalytic subunit alpha (Homo sapiens, UniProt Q08209); set-up: species or system Escherichia coli
[11] = target: 5-hydroxytryptamine receptor 1B (Rattus norvegicus, UniProt P28564); assay type: cell membranes, Wistar, Cerebral cortex, Membrane; note: in other assays of this panel Not Active means under 50% inhibition at 10 µM
Cytochrome P450 2A6 = target: T3, Cytochrome P450 2A6 (Homo sapiens, UniProt P11509); conditions: bti-tn-5b1-4; note: in other assays of this panel Not Active means under 50% inhibition at 10 µM
T3 sequence (P11509 whole entry): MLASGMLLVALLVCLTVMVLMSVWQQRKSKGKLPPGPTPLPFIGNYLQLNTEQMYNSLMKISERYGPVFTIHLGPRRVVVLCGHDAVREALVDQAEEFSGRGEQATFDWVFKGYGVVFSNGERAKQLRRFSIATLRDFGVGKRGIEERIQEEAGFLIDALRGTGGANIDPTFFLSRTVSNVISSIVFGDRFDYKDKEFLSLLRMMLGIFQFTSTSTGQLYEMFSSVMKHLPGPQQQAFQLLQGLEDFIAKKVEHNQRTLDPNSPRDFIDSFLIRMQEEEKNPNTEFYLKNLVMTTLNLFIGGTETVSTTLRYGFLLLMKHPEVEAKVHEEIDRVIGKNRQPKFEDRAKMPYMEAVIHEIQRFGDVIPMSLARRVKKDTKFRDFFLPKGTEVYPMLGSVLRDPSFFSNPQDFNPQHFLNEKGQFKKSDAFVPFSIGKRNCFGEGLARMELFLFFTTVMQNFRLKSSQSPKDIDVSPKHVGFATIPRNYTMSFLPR

Estrogen receptor = target: T4, Estrogen receptor (Homo sapiens, UniProt P03372); conditions: sf9; note: in other assays of this panel Not Active means under 50% inhibition at 10 µM
T4 sequence (P03372 whole entry): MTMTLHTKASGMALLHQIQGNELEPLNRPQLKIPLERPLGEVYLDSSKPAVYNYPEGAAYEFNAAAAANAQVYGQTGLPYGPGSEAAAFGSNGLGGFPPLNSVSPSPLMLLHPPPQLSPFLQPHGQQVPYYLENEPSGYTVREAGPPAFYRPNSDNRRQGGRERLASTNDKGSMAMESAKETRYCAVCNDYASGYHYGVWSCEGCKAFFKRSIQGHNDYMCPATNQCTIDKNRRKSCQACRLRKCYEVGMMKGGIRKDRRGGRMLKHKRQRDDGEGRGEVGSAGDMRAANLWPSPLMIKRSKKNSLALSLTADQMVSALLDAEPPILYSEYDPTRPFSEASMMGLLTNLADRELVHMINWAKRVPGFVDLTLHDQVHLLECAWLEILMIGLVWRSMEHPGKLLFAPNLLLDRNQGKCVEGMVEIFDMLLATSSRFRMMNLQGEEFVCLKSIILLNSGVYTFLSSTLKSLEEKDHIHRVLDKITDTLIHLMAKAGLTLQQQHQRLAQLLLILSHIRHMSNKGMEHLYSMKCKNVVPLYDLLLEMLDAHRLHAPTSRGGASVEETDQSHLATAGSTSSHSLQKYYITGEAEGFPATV

Sequence of Platelet-activating factor receptor (P25105 whole entry): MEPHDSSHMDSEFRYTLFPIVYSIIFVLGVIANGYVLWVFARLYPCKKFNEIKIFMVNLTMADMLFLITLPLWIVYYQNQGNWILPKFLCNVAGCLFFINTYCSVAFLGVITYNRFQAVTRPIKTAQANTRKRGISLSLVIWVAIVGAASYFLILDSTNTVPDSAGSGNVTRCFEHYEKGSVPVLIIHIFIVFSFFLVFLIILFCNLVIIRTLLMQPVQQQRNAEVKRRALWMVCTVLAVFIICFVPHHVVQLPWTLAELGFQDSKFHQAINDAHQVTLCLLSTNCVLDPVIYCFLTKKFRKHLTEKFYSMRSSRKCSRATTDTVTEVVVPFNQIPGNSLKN
Sequence of Sigma non-opioid intracellular receptor 1 (Q99720 whole entry): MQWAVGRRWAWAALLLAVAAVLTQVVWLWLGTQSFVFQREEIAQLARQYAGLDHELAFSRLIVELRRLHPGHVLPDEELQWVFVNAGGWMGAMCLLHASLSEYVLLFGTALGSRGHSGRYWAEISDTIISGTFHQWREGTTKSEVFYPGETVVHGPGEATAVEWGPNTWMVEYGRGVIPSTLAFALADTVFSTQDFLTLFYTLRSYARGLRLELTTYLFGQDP
Sequence of Substance-P receptor (P25103 whole entry): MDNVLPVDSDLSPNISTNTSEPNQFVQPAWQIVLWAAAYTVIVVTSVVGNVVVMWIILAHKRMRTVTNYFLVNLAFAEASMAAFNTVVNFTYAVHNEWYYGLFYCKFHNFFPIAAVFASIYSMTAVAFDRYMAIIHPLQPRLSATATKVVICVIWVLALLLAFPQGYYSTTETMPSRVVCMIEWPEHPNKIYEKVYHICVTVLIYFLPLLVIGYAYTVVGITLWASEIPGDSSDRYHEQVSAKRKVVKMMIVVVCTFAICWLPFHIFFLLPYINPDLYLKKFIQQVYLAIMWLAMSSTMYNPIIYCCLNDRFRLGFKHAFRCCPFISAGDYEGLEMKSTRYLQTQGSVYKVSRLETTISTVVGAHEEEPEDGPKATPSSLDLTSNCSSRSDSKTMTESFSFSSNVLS
Sequence of Matrix metalloproteinase-9 (P14780 whole entry): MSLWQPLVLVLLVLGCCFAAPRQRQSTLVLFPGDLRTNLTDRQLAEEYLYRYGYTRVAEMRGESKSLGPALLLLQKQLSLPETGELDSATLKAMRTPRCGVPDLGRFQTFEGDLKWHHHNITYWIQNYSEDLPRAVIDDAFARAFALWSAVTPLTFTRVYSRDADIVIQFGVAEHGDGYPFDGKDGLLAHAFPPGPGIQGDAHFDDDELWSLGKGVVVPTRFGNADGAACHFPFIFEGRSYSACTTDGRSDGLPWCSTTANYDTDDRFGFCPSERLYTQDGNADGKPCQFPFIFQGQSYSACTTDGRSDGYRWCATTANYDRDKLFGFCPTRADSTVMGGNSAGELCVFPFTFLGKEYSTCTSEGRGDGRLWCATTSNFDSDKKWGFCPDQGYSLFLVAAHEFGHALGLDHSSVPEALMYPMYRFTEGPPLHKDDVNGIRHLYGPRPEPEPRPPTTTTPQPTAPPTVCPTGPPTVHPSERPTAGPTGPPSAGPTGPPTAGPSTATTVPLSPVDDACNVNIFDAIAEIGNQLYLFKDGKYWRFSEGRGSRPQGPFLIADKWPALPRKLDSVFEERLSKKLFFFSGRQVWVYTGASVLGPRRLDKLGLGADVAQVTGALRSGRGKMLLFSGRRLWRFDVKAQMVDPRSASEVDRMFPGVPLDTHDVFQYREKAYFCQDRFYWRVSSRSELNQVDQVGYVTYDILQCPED
Sequence of 5-hydroxytryptamine receptor 1B (P28564 whole entry): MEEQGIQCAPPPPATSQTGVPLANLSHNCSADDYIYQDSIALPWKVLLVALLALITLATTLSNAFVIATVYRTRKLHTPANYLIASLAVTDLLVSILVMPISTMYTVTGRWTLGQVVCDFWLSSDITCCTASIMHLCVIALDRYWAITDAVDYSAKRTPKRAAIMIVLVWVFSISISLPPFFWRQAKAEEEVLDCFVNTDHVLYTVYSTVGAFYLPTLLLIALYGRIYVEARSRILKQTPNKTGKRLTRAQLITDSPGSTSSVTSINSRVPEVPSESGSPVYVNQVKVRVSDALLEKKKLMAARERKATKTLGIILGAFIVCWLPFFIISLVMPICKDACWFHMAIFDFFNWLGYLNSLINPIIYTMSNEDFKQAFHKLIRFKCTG

C=C1C(=O)O[C@@H]2C3O[C@]3(C)CC/C=C(\C)CC[C@@H]12 (stereo not given in full)
Not Active: IC50 [1] | IC50 [2] | Ki [2] | IC50 (Substance-P receptor) | IC50 [3] | Ki [3] | IC50 [4] | Ki [4] | IC50 (Leukotriene C4 synthase) | IC50 [5] | IC50 [6] | Ki [6] | IC50 [7] | IC50 [8] | IC50 [9] | IC50 [10] | IC50 [11] | IC50 (Cytochrome P450 2A6) | Ki (Cytochrome P450 2A6) | IC50 (Estrogen receptor)

C=C(C)[C@@H]1[C@H]2OC(=O)[C@@H]1[C@]1(O)C[C@H]3O[C@]34C(=O)O[C@H]2[C@]14C [PICROTOXININ]
Not Active: IC50 [1] | IC50 [2] | Ki [2] | IC50 (Substance-P receptor) | IC50 [3] | Ki [3] | IC50 [4] | Ki [4] | IC50 (Leukotriene C4 synthase) | IC50 [5] | IC50 [6] | Ki [6] | IC50 [7] | IC50 [8] | IC50 [9] | IC50 [10] | IC50 [11] | IC50 (Cytochrome P450 2A6) | Ki (Cytochrome P450 2A6) | IC50 (Estrogen receptor)

CARBOPLATIN
Not Active: IC50 [1] | Ki [1] | IC50 [2] | Ki [2] | IC50 (Substance-P receptor) | Ki (Substance-P receptor) | IC50 [3] | Ki [3] | IC50 [4] | Ki [4] | IC50 (Leukotriene C4 synthase) | Ki (Leukotriene C4 synthase) | IC50 [5] | Ki [5] | IC50 [6] | Ki [6] | IC50 [7] | Ki [7] | IC50 [8] | Ki [8] | IC50 [9] | Ki [9] | IC50 [10] | Ki [10] | IC50 [11] | Ki [11] | IC50 (Cytochrome P450 2A6) | Ki (Cytochrome P450 2A6) | IC50 (Estrogen receptor) | Ki (Estrogen receptor)

CCCCOC(=O)c1ccc(N)cc1 [BUTAMBEN]
Not Active: IC50 [1] | IC50 [2] | Ki [2] | IC50 (Substance-P receptor) | IC50 [3] | Ki [3] | IC50 [4] | Ki [4] | IC50 (Leukotriene C4 synthase) | IC50 [5] | IC50 [6] | Ki [6] | IC50 [7] | IC50 [8] | IC50 [9] | IC50 [10] | IC50 [11] | IC50 (Cytochrome P450 2A6) | Ki (Cytochrome P450 2A6) | IC50 (Estrogen receptor)

CC[C@@]1(O)C(=O)OCc2c1cc1n(c2=O)Cc2cc3ccccc3nc2-1 [CAMPTOTHECIN]
Not Active: IC50 [1] | IC50 [2] | Ki [2] | IC50 (Substance-P receptor) | IC50 [3] | Ki [3] | IC50 [4] | Ki [4] | IC50 (Leukotriene C4 synthase) | IC50 [5] | IC50 [6] | Ki [6] | IC50 [7] | IC50 [8] | IC50 [9] | IC50 [10] | IC50 [11] | IC50 (Cytochrome P450 2A6) | Ki (Cytochrome P450 2A6) | IC50 (Estrogen receptor)

CISPLATIN
Not Active: IC50 [1] | Ki [1] | IC50 [2] | Ki [2] | IC50 (Substance-P receptor) | Ki (Substance-P receptor) | IC50 [3] | Ki [3] | IC50 [4] | Ki [4] | IC50 (Leukotriene C4 synthase) | Ki (Leukotriene C4 synthase) | IC50 [5] | Ki [5] | IC50 [6] | Ki [6] | IC50 [7] | Ki [7] | IC50 [8] | Ki [8] | IC50 [9] | Ki [9] | IC50 [10] | Ki [10] | IC50 [11] | Ki [11] | IC50 (Cytochrome P450 2A6) | Ki (Cytochrome P450 2A6) | IC50 (Estrogen receptor) | Ki (Estrogen receptor)

OXALIPLATIN
Not Active: IC50 [1] | Ki [1] | IC50 [2] | Ki [2] | IC50 (Substance-P receptor) | Ki (Substance-P receptor) | IC50 [3] | Ki [3] | IC50 [4] | Ki [4] | IC50 (Leukotriene C4 synthase) | Ki (Leukotriene C4 synthase) | IC50 [5] | Ki [5] | IC50 [6] | Ki [6] | IC50 [7] | Ki [7] | IC50 [8] | Ki [8] | IC50 [9] | Ki [9] | IC50 [10] | Ki [10] | IC50 [11] | Ki [11] | IC50 (Cytochrome P450 2A6) | Ki (Cytochrome P450 2A6) | IC50 (Estrogen receptor) | Ki (Estrogen receptor)

— ChEMBL document CHEMBL1909046, “DrugMatrix in vitro pharmacology data”
